Laboratory results reported in ChEMBL document CHEMBL3085703, “Synthetic cannabinoid quinones: preparation, in vitro antiproliferative effects and in vivo prostate antitumor activity” (Eur J Med Chem, 2013).
Active and inactive are the calls of the source. The rule behind the calls is not given here.

Legend:
Cannabinoid receptor 2 = Cannabinoid receptor 2 (Homo sapiens, UniProt P34972); assay: Displacement of [3H]CP55940 from human cannabinoid CB2 receptor expressed in HEK293 EBNA cells after 90 mins by liquid scintillation counting; assay type: cell-based
Cannabinoid receptor 1 = Cannabinoid receptor 1 (Homo sapiens, UniProt P21554); assay: Displacement of [3H]CP55940 from human cannabinoid CB1 receptor expressed in HEK293 EBNA cells after 90 mins by liquid scintillation counting; assay type: cell-based
PC-3 [1] = assay: Antitumor activity against human PC3 cells xenografted in BALB/c OlaHsd-Foxn1nu mouse assessed as tumor growth inhibition at 2 mg/kg, ip qd for 15 days; assay type: functional; settings: PC-3, ip, 360 h, route intraperitoneal, read-out: TGI
LNCaP [2] = assay: Antitumor activity against human LNCAP cells xenografted in BALB/c OlaHsd-Foxn1nu mouse assessed as tumor growth inhibition at 2 mg/kg, ip qd for 15 days; assay type: functional, organism-based; parameters: dose 2 mg/kg
LNCaP [3] = assay: Antiproliferative activity against human LNCAP cells after 48 hrs by MTT assay in presence of PPARgamma antagonist GW9662; assay type: functional, cell-based
LNCaP [4] = assay: Antiproliferative activity against human LNCAP cells after 48 hrs by MTT assay in presence of antioxidant N-acetylcysteine; assay type: functional, cell-based
LNCaP [5] = assay: Antiproliferative activity against human LNCAP cells after 48 hrs by MTT assay in presence of CB2 antagonist SR144528; assay type: functional, cell-based
LNCaP [6] = assay: Antiproliferative activity against human LNCAP cells after 48 hrs by MTT assay in presence of CB1 antagonist SR141716; assay type: functional, cell-based
PC-3 [7] = assay: Induction of apoptosis in human PC3 cells assessed as early apoptotic cells at IC50 after 24 hrs using annexin V-FITC/PI staining by flow cytometric analysis (reference value: 1.51%); assay type: functional
PC-3 [8] = assay: Induction of apoptosis in human PC3 cells assessed as late apoptotic cells at IC50 after 24 hrs using annexin V-FITC/PI staining by flow cytometric analysis (reference value: 4.45%); assay type: functional
PC-3 [9] = assay: Induction of apoptosis in human PC3 cells assessed as viable cells at IC50 after 24 hrs using annexin V-FITC/PI staining by flow cytometric analysis (reference value: 9.96%); assay type: functional
LNCaP [10] = assay: Induction of apoptosis in human LNCAP cells assessed as early apoptotic cells at IC50 after 24 hrs using annexin V-FITC/PI staining by flow cytometric analysis (reference value: 1.24%); assay type: functional
LNCaP [11] = assay: Induction of apoptosis in human LNCAP cells assessed as late apoptotic cells at IC50 after 24 hrs using annexin V-FITC/PI staining by flow cytometric analysis (reference value: 2.96%); assay type: functional
LNCaP [12] = assay: Induction of apoptosis in human LNCAP cells assessed as viable cells at IC50 after 24 hrs using annexin V-FITC/PI staining by flow cytometric analysis (reference value: 12.33%); assay type: functional
PC-3 [13] = assay: Cell cycle arrest in human PC3 cells assessed as accumulation at G2 phase at IC50 after 24 hrs by flow cytometry analysis (reference value: 22.90%); assay type: functional
PC-3 [14] = assay: Cell cycle arrest in human PC3 cells assessed as accumulation at S phase at IC50 after 24 hrs by flow cytometry analysis (reference value: 6.97%); assay type: functional
PC-3 [15] = assay: Cell cycle arrest in human PC3 cells assessed as accumulation at G1/G0 phase at IC50 after 24 hrs by flow cytometry analysis (reference value: 70%); assay type: functional
PC-3 [16] = assay: Cell cycle arrest in human PC3 cells assessed as accumulation at sub-G0 phase at IC50 after 24 hrs by flow cytometry analysis (reference value: 0.12%); assay type: functional
LNCaP [17] = assay: Cell cycle arrest in human LNCAP cells assessed as accumulation at G2 phase at IC50 after 24 hrs by flow cytometry analysis (reference value: 5.62%); assay type: functional
LNCaP [18] = assay: Cell cycle arrest in human LNCAP cells assessed as accumulation at S phase at IC50 after 24 hrs by flow cytometry analysis (reference value: 3.90%); assay type: functional
LNCaP [19] = assay: Cell cycle arrest in human LNCAP cells assessed as accumulation at G1/G0 phase at IC50 after 24 hrs by flow cytometry analysis (reference value: 91.30%); assay type: functional
LNCaP [20] = assay: Cell cycle arrest in human LNCAP cells assessed as accumulation at sub-G0 phase at IC50 after 24 hrs by flow cytometry analysis (reference value: 0.18%); assay type: functional
PC-3 [21] = assay: Antiproliferative activity against human PC3 cells after 48 hrs by MTT assay; assay type: functional, cell-based; settings: PC-3, 48 h
LNCaP [22] = assay: Antiproliferative activity against human LNCAP cells after 48 hrs by MTT assay; assay type: functional, cell-based
HepG2 = assay: Antiproliferative activity against human HepG2 cells after 48 hrs by MTT assay; assay type: functional, cell-based; settings: HepG2, 48 h

Chain of Cannabinoid receptor 1 (P21554 whole entry): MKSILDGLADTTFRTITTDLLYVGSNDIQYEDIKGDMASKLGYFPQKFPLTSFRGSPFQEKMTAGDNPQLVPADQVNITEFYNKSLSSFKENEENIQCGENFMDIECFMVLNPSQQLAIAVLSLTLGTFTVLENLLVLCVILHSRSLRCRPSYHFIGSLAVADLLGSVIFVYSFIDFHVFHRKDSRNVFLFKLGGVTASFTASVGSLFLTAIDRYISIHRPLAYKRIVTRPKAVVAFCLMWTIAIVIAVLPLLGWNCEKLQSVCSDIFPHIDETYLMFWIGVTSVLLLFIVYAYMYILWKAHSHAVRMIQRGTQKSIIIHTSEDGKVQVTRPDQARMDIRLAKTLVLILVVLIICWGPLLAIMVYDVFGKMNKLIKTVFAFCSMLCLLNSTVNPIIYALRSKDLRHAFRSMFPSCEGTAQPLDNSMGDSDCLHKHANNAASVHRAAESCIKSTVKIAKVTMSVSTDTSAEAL
Chain of Cannabinoid receptor 2 (P34972 whole entry): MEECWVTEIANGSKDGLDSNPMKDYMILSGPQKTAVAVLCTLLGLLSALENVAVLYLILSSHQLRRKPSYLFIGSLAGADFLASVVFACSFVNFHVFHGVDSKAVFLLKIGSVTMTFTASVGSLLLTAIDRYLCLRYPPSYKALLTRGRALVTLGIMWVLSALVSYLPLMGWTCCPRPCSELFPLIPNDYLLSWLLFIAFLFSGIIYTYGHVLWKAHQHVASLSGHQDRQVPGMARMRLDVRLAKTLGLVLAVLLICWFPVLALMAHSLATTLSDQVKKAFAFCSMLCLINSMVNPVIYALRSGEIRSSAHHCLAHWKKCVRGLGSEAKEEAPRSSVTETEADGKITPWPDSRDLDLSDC

CCCCCCC(C)(C)C1=CC(=O)C2=C(OC(C)(C)c3cn(C)nc32)C1=O
Ki (Cannabinoid receptor 2): 0.672 µM
Ki (Cannabinoid receptor 1): 14.2 µM

CCCCCCC(C)(C)C1=CC(=O)C2=C(OC(C)(C)c3c[nH]nc32)C1=O
inhibition in vivo at 2 mg/kg (PC-3 [1]): 40%
TGI (LNCaP [2]): Active
Activity (LNCaP [3]): inactive
Activity (LNCaP [4]): inactive
Activity (LNCaP [5]): Active
Activity (LNCaP [6]): inactive
Activity (PC-3 [7]): 3.98%
Activity (PC-3 [8]): 6.91%
Activity (PC-3 [9]): 5.97%
Activity (LNCaP [10]): 5.86%
Activity (LNCaP [11]): 9.59%
Activity (LNCaP [12]): 12.52%
Activity (PC-3 [13]): 30.24%
Activity (PC-3 [14]): 10.09%
Activity (PC-3 [15]): 58.68%
Activity (PC-3 [16]): 2.3%
Activity (LNCaP [17]): 9.24%
Activity (LNCaP [18]): 7.09%
Activity (LNCaP [19]): 74.68%
Activity (LNCaP [20]): 8.9%
IC50 (PC-3 [21]): 15 µM
IC50 (LNCaP [22]): 15 µM
IC50 (HepG2): 30 µM
Ki (Cannabinoid receptor 2): 0.134 µM
Ki (Cannabinoid receptor 1): 0.324 µM

CCCCCCC(C)(C)C1=CC(=O)C2=C(OC(C)(C)c3cn(CC)nc32)C1=O
Ki (Cannabinoid receptor 2): 3.66 µM
Ki (Cannabinoid receptor 1): 8.52 µM
